The source made the active and inactive calls. No stated cut-off is given here; in the data, active = IC50 of 10 µM or less and inactive = more.
Experiments:
[1] = molecular target: Neuropeptides B/W receptor type 1 (Homo sapiens, UniProt P48145); assay: GPR7 antagonist potency, late-stage follow-up, cell-based, fluorescence, dose response, set 5 (AID 588566); assay type: functional
[2] = molecular target: Melanin-concentrating hormone receptor 1 (Homo sapiens, UniProt Q99705); assay: Late-stage fluorescence-based counterscreen for antagonists of the G-protein coupled receptor 7 (GPR7): cell-based dose response assay to identify antagonists of the melanin-concentrating hormone receptor 1 (MCHR1) Set 5.; assay type: functional
Melanin-concentrating hormone receptor 1, sequence (Q99705 whole entry): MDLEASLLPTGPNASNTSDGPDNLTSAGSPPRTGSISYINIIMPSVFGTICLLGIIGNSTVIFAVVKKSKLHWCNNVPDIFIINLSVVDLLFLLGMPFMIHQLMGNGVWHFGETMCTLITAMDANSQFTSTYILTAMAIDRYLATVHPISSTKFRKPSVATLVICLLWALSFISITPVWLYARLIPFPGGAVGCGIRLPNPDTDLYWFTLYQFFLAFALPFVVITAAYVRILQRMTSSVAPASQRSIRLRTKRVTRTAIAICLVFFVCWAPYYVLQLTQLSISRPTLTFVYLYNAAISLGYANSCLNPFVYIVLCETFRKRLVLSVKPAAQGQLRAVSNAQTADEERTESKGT

Neuropeptides B/W receptor type 1, sequence (P48145 whole entry): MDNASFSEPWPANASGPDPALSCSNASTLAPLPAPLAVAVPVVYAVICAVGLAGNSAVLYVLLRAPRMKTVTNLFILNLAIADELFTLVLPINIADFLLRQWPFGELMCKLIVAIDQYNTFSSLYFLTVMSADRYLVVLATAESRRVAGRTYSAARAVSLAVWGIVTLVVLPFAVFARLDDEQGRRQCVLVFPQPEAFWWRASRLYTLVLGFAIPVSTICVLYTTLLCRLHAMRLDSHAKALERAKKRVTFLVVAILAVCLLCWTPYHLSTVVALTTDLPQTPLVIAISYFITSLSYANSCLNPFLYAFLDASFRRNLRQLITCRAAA

## CCOc1ccc(Oc2c(Br)nn(Cc3cccc4ccccc34)c(=O)c2Cl)cc1
[1]
  IC50: 18.3 µM (inactive)
[2]
  IC50: > 20 µM (inactive)
